Source: patent publication US10040806B2, “Microbiocidally active benzoxaboroles” (Syngenta Participations AG, priority 2014, dated 2018)

Experiments:
[1] = system: Mycosphaerella graminicola (Septoria tritici); test: Mycosphaerella graminicola (Septoria tritici)/liquid culture (Septoria blotch); assay type: cell-based; details: Zymoseptoria tritici, liquid culture, PDB, inhibition of growth determined photometrically 4-5 days after application, read-out: disease control
[2] = system: Mycosphaerella arachidis (Cercospora arachidicola); test: Mycosphaerella arachidis (Cercospora arachidicola)/liquid culture (early leaf spot); assay type: cell-based; details: liquid culture, PDB, inhibition of growth determined photometrically 4-5 days after application, read-out: disease control
[3] = system: Monographella nivalis (Microdochium nivale); test: Monographella nivalis (Microdochium nivale)/liquid culture (foot rot cereals); assay type: cell-based; details: liquid culture, PDB, inhibition of growth determined photometrically 4-5 days after application, read-out: disease control
Pythium ultimum = test: Pythium ultimum/liquid culture (seedling damping off); assay type: cell-based; details: Globisporangium ultimum, liquid culture, potato dextrose broth, inhibition of growth determined photometrically 2-3 days after application, read-out: disease control

CCOc1cc2c(cc1Cl)COB2O [Compound 9, 5-chloro-6-ethoxy-1-hydroxy-3H-2,1-benzoxaborole]
inhibition of growth at 20 ppm [1]: ≥ 80% | inhibition of growth at 20 ppm [2]: ≥ 80% | melting point: 146 to 148 °C | inhibition of growth at 20 ppm [3]: ≥ 80% | inhibition of growth at 20 ppm (Pythium ultimum): ≥ 80%

CCOc1c(Cl)cc2c(c1Cl)B(O)OC2 [Compound 95, 5,7-dichloro-6-ethoxy-1-hydroxy-3H-2,1-benzoxaborole]
inhibition of growth at 20 ppm [1]: ≥ 80% | inhibition of growth at 20 ppm [2]: ≥ 80% | melting point: 109 to 111 °C | inhibition of growth at 20 ppm [3]: ≥ 80% | inhibition of growth at 20 ppm (Pythium ultimum): ≥ 80%

OB1OCc2cc(Cl)c(O)c(Cl)c21 [Compound 94, 5,7-dichloro-1-hydroxy-3H-2,1-benzoxaborol-6-ol]
inhibition of growth at 20 ppm [1]: ≥ 80% | inhibition of growth at 20 ppm [2]: ≥ 80% | melting point: 174 to 176 °C | inhibition of growth at 20 ppm [3]: ≥ 80% | inhibition of growth at 20 ppm (Pythium ultimum): ≥ 80%

COc1cc(Cl)cc2c1B(O)OC2 [Compound 104, 5-chloro-1-hydroxy-7-methoxy-3H-2,1-benzoxaborole]
inhibition of growth at 20 ppm [1]: ≥ 80% | inhibition of growth at 20 ppm [2]: ≥ 80% | melting point: 146 to 148 °C | inhibition of growth at 20 ppm [3]: ≥ 80% | inhibition of growth at 20 ppm (Pythium ultimum): ≥ 80%

OB1OCc2cc(Cl)c(O)cc21 [Compound 6, 5-chloro-1-hydroxy-3H-2,1-benzoxaborol-6-ol]
inhibition of growth at 20 ppm [1]: ≥ 80% | inhibition of growth at 20 ppm [2]: ≥ 80% | melting point: 194 to 195 °C | inhibition of growth at 20 ppm [3]: ≥ 80% | inhibition of growth at 20 ppm (Pythium ultimum): ≥ 80%

CCOc1cc2c(cc1C)COB2O [Compound 38, 6-ethoxy-1-hydroxy-5-methyl-3H-2,1-benzoxaborole]
inhibition of growth at 20 ppm [1]: ≥ 80% | inhibition of growth at 20 ppm [2]: ≥ 80% | melting point: 97 to 100 °C | inhibition of growth at 20 ppm [3]: ≥ 80% | inhibition of growth at 20 ppm (Pythium ultimum): ≥ 80%

COc1cc2c(cc1Cl)COB2O [Compound 5, 5-chloro-1-hydroxy-6-methoxy-3H-2,1-benzoxaborole]
inhibition of growth at 20 ppm [1]: ≥ 80% | inhibition of growth at 20 ppm [2]: ≥ 80% | inhibition of growth at 20 ppm [3]: ≥ 80% | inhibition of growth at 20 ppm (Pythium ultimum): ≥ 80%

OB1OCc2cc3c(cc21)OC(F)(F)O3 [Compound 1]
inhibition of growth at 20 ppm [1]: ≥ 80% | inhibition of growth at 20 ppm [2]: ≥ 80% | melting point: 147 to 149 °C | inhibition of growth at 20 ppm [3]: ≥ 80% | inhibition of growth at 20 ppm (Pythium ultimum): ≥ 80%
